The subject of series [1] is COL1A2. The series can be described thus: COL1A2 expression in mouse skin fibroblasts by fluorescent quantitative PCR. The note with it: for expression of COL1A2 in the fibroblasts relative to blank control group: mouse skin fibroblasts. The class given is cell-based, C57BL/6 mice. From the text:
(§1) Experimental method: skin tissues were taken from the backs of newborn C57BL/6 mice, and fibroblasts obtained from mice were isolated and purified. […] The third-generation of fibroblasts were taken for experiments.
Experimental method: the COL1A2 level was detected using fluorescent quantitative polymerase chain reaction (PCR) method. The experiment was divided into two major groups: a blank control group and a sodium 4-[(1E)-2-[[(4-chlorophenyl)methyl]sulfonyl]alkyne]-benzoate treatment group. In the blank control group, the fibroblasts were cultured in a normal medium; and in the sodium 4-[(1E)-2-[[(4-chlorophenyl)methyl]sulfonyl]alkyne]-benzoate treatment group, the fibroblasts were treated with five media containing different concentrations (0.1 μM, […], 1 μM, 3 μM, and 6 μM) of sodium 4-[(1E)-2-[[(4-chlorophenyl)methyl]sulfonyl]alkyne]-benzoate (i.e., normal medium added with sodium 4-[(1E)-2-[[(4-chlorophenyl)methyl]sulfonyl]alkyne]-benzoate at the aforementioned concentrations) for 24 h. The specific process was as follows. The third-generation of fibroblasts was uniformly inoculated into a six-well plate. In the blank control group, the fibroblasts were cultured in the normal medium, and in the sodium 4-[(1E)-2-[[(4-chlorophenyl)methyl]sulfonyl]alkyne]-benzoate treatment group, the fibroblasts were cultured in media containing sodium 4-[(1E)-2-[[(4-chlorophenyl)methyl]sulfonyl]alkyne]-benzoate at the corresponding concentrations. After 24 h of culture, total RNA was extracted from the fibroblasts and subjected to reverse transcription to obtain complementary deoxyribonucleic acid (cDNA), which was then subjected to fluorescent quantitative PCR. After the end of reaction, an amplification curve and a melting curve of the fluorescent quantitative PCR were confirmed, with glyceraldehyde-3-phosphate dehydrogenase (GAPDH) as an internal reference gene. The results were analyzed using the internationally accepted 2^−ΔΔCt method.
Total RNA of fibroblasts was extracted using standard laboratory RNA extraction method and stored at −80° C. for later use. The extracted total RNA of fibroblasts was used as a template to synthesize cDNA by using the standard laboratory method, and the synthesized cDNA was stored at −20° C. for later use.
Fluorescent quantitative PCR system: 10 μL of qPCR SYBR Green Master Mix, 2 μL of 2 μM upstream primer, 2 μL of 2 μM downstream primer, and 1000 ng of cDNA template, a total volume of 20 μL by supplementing with diethyl pyrocarbonate (DEPC)-treated water.
Reaction conditions: pre-denaturation at 95° C. for 5 min, followed by 40 cycles of 10 sec at 95° C., 20 sec at 52.9° C., and 20 sec at 72° C. After the end of reaction, the melting curve was analyzed.
Experimental method: the COL1A2 level was detected using fluorescent quantitative PCR method. The experiment was divided into two major groups: a blank control group and a sodium 4-[(1E)-2-[[(4-chlorophenyl)methyl]sulfonyl]alkyne]-benzoate treatment group. In the blank control group, the fibroblasts were cultured in a normal medium; and in the sodium 4-[(1E)-2-[[(4-chlorophenyl)methyl]sulfonyl]alkyne]-benzoate treatment group, the fibroblasts were cultured in a medium containing 0.5 μM of sodium 4-[(1E)-2-[[(4-chlorophenyl)methyl]sulfonyl]alkyne]-benzoate, with incubation times of 24 h, 48 h, and 72 h. The specific process was as follows. The third-generation of fibroblasts was uniformly inoculated into a six-well plate. In the blank control group, the fibroblasts were cultured in a normal medium, and in the sodium 4-[(1E)-2-[[(4-chlorophenyl)methyl]sulfonyl]alkyne]-benzoate treatment group, the fibroblasts were cultured in a medium containing 0.5 μM of sodium 4-[(1E)-2-[[(4-chlorophenyl)methyl]sulfonyl]alkyne]-benzoate (i.e., normal medium containing 0.5μ M of sodium 4-[(1E)-2-[[(4-chlorophenyl)methyl]sulfonyl]alkyne]-benzoate). […]

For a further series, the system named is dermal thickness in skin. The series can be described thus: Dermal thickness in treated back skin of mice (HE staining). The class given is in vivo, C57BL/6 mice. Here is the method:
(§2) Sodium 4-[(1E)-2-[[(4-chlorophenyl)methyl]sulfonyl]alkyne]-benzoate was dissolved in water to prepare an aqueous solution of sodium 4-[(1E)-2-[[(4-chlorophenyl)methyl]sulfonyl]alkyne]-benzoate (i.e., an anti-aging preparation for skin). Six healthy C57BL/6 mice aged 6-8 weeks with similar body sizes were selected, and the hair on the backs of the mice was removed gently and harmlessly to expose a similar area of skin on the back of each mouse. The six mice were divided into two groups equally. The same volume of pure water and aqueous solutions containing […] sodium 4-[(1E)-2-[[(4-chlorophenyl)methyl]sulfonyl]alkyne]-benzoate were applied, respectively, to the hair-removed skin on the backs of the mice once a day for 30 consecutive days.
Experimental method: after continuously applying an aqueous solution containing 0.5 μM of sodium 4-[(1E)-2-[[(4-chlorophenyl)methyl]sulfonyl]alkyne]-benzoate or pure water as a blank control to the backs of mice for 30 days, the mice were euthanized for cutting the skin from the treated areas, and hematoxylin-eosin (HE) staining method was used for detecting the dermal thickness in the skin. Specifically, the tissues were fixed, dehydrated with a sucrose solution, embedded in OCT, sliced, stained with hematoxylin, counterstained blue with tap water, stained with eosin, dehydrated and cleared, and then mounted.

The subject of series [2] is collagen fiber content in skin. Description: Collagen fiber content in treated back skin of mice (Masson staining). The class given is in vivo, C57BL/6 mice. Here is the method:
as §2
Experimental method: after continuously applying an aqueous solution containing 0.5 μM of sodium 4-[(1E)-2-[[(4-chlorophenyl)methyl]sulfonyl]alkyne]-benzoate or pure water as a blank control to the backs of mice for 30 days, the mice were euthanized for cutting the skin from the treated areas, and the Masson staining method was used for detecting the collagen fiber content in the skin. […]

A further series relates to MMP-13. The series can be described thus: MMP-13 mRNA level in treated back skin of mice (fluorescent quantitative PCR). Format: in vivo, C57BL/6 mice. Particulars: aqueous solution 0.5 M (so in the source) applied to hair-removed back skin once a day for 30 days, P=0.0171. Here is the method: (§3) Sodium 4-[(1E)-2-[[(4-chlorophenyl)methyl]sulfonyl]alkyne]-benzoate was dissolved in water to prepare an aqueous solution of sodium 4-[(1E)-2-[[(4-chlorophenyl)methyl]sulfonyl]alkyne]-benzoate (i.e., an anti-aging preparation for skin). Six healthy C57BL/6 mice aged 6-8 weeks with similar body sizes were selected, and the hair on the backs of the mice was removed gently and harmlessly to expose a similar area of skin on the back of each mouse. The six mice were divided into two groups equally. […]
Experimental method: after continuously applying an aqueous solution containing 0.5 M of sodium 4-[(1E)-2-[[(4-chlorophenyl)methyl]sulfonyl]alkyne]-benzoate or pure water as a blank control to the backs of mice for 30 days, the mice were euthanized for cutting the skin from the treated areas, and the fluorescent quantitative PCR method was used for detecting the mRNA level of MMP-13 in skin tissue. Specifically, total RNA was extracted from skin tissues, and subjected to reverse transcription to obtain cDNA, which was then subjected to fluorescence quantitative PCR. After the end of reaction, an amplification curve and a melting curve of the fluorescent quantitative PCR were confirmed, with GAPDH as an internal reference gene. The results were analyzed using the internationally accepted 2^−ΔΔCt method. […]

For series [3], the system named is COL1A2. Description: COL1A2 mRNA level in treated back skin of mice (fluorescent quantitative PCR). The class given is in vivo, C57BL/6 mice. The note with it: aqueous solution 0.5 μM applied to hair-removed back skin once a day for 30 days, P=0.0178. Here is the method: as §3
(§4) Experimental method: after continuously applying the same volume of aqueous solutions containing 0.5 μM of sodium 4-[(1E)-2-[[(4-chlorophenyl)methyl]sulfonyl]alkyne]-benzoate or pure water as a blank control to the backs of mice for 30 days, the mice were euthanized for cutting the skin from the treated areas. The Westernblot method was employed to detect the protein level of COL1A2, and the fluorescent quantitative PCR method was employed to detect the mRNA level of COL1A2.
Fluorescence quantitative PCR experiment was performed specifically as follows. Total RNA was extracted from skin tissues, and subjected to reverse transcription to obtain cDNA, which was then subjected to fluorescence quantitative PCR. After the end of reaction, an amplification curve and a melting curve of the fluorescent quantitative PCR were confirmed, with GAPDH as an internal reference gene. […]

In another series the test system is fibroblasts. The series can be described thus: Cell viability of fibroblasts after administration (status photographed under a microscope). The class given is cell-based, C57BL/6 mice. The note with it: 0.5 μM, 24 h and 48 h. Here is the method: as §1
Experimental method: the third-generation of fibroblasts was uniformly inoculated into a six-well plate. In the blank control group, the fibroblasts were cultured in a normal medium, and in the sodium 4-[(1E)-2-[[(4-chlorophenyl)methyl]sulfonyl]alkyne]-benzoate treatment group, the fibroblasts were cultured in a medium containing 0.5 μM of sodium 4-[(1E)-2-[[(4-chlorophenyl)methyl]sulfonyl]alkyne]-benzoate (i.e., normal medium containing 0.5 μM of sodium 4-[(1E)-2-[[(4-chlorophenyl)methyl]sulfonyl]alkyne]-benzoate). After culturing for 24 h and 48 h, respectively, the status of fibroblasts was photographed under a microscope.

In series [4] the test system is COL1A2. The series can be described thus: COL1A2 protein level in treated back skin of mice (Westernblot). The note with it: aqueous solution 0.5 μM applied to hair-removed back skin once a day for 30 days, P=0.0378. The class given is in vivo, C57BL/6 mice. Here is the method: as §3, §4
The specific process for the Westernblot experiment was as follows. […] After fluorescent secondary antibodies were incubated, the samples were visualized using an infrared fluorescence scanning imaging system. […]

Where [5] appears, read: same effect verification as Examples 1 and 2.

As for `O=C(O)c1ccc(/C=C/S(=O)(=O)Cc2ccc(Cl)cc2)cc1`, the “increasing the expression of type I collagen (COL1A2) in cells, compared with the sodium salt” value in the series with COL1A2 [1] (setting [5]) is reported as “equivalent effects”. For the same molecule, the “increasing the dermal thickness in the skin, compared with the sodium salt” value with dermal thickness in skin (setting [5]) is “equivalent effects”. The “increasing the collagen fiber content in the skin, compared with the sodium salt” value in series [2] (setting [5]) is “equivalent effects”.

Turning to `O=C([O-])c1ccc(/C=C/S(=O)(=O)Cc2ccc(Cl)cc2)cc1.[Na+]`, the “expression of COL1A2 in the fibroblasts relative to blank control group” value is given as 1.613 times with COL1A2 [1] (0.5 μM, 24 h, P=0.0003) and 1.173 times with COL1A2 [1] (1 μM, 24 h, P<0.0001). In addition, the “expression of COL1A2 in fibroblasts with extension of incubation time” value in the series on COL1A2 [1] (0.5 μM, incubation time from 24 h to 72 h) is “decreases”. Besides, the “expression of COL1A2 in fibroblasts compared to the blank control group” value in the series with COL1A2 [1] (0.5 μM, incubation time of 72 h) is “no difference”. Moreover, the “expression of COL1A2 in the fibroblasts” value in the series with COL1A2 [1] (any other concentrations (0.1 μM, 3 μM, 6 μM), 24 h) was “cannot increase the expression of COL1A2”. Also, the “mRNA level of MMP-13 in skin, decrease compared to pure water blank control group” value with MMP-13 is 0.5124 times. Moreover, the “mRNA level of COL1A2 in skin, increase compared to pure water blank control group” value with COL1A2 [3] came to 2.681 times. For the same molecule, the “viability / status of fibroblasts” value in the series with fibroblasts was “no adverse effects on viability of fibroblasts”. For the same molecule, in the series on dermal thickness in skin (aqueous solution 0.5 μM applied to hair-removed back skin once a day for 30 days, P=0.0004), the “dermal thickness in the skin, increase compared to pure water blank control group” value is 2.9101 times. Besides, in the series with COL1A2 [4], the “protein level of COL1A2 in skin, increase compared to pure water blank control group” value worked out at 4.024 times. For the same molecule, the “collagen fiber content in the skin, increase compared to pure water blank control group” value in series [2] (aqueous solution 0.5 μM applied to hair-removed back skin once a day for 30 days, P=0.0010) came to 3.3904 times.

The values above are taken from patent publication US12251458B1, “Anti-aging preparation for skin and application thereof” (South China Normal University, priority 2023, dated 2025).
